Results published in patent US8337896B2, “Drug-containing nanoparticles” (Kyushu University, National University Corporation, priority 2007, dated 2012).
Structures can show the parent of a compound that is named as a salt.

Experiments:
[1] = tested on: mouse vascular injury model; assay: Neointimal formation suppressive effect in mouse vascular injury model; format: in vivo; settings: high dose systemic administration: single intraperitoneal, 28 days after wire injury
Method: Using the pioglitazone-containing nanoparticles obtained in Example 1, the neointimal formation suppressive effect in mouse vascular injury model was tested. […] The both ends of the blood vessel were ligated with a 6-0 silk thread to temporarily shut off the blood flow. The branch was incised, and a wire (diameter […], No. C—SF-15-15, COOK) was inserted by 5 mm in the iliac artery side to injure the blood vessel. After wire injury, the experimental animals were divided into a solvent control group and pioglitazone-containing nanoparticle group. The wire was removed, 100 μl, each of a solvent and a pioglitazone-containing PLGA nanoparticle solution was intraarterially administered from the branch over 5 min. The solvent control group was administered with the solvent (phosphate buffered saline) alone only once. The pioglitazone-containing nanoparticle group was administered with the pioglitazone-containing PLGA nanoparticles obtained in Example 1 (containing 0.5 mg/mouse as nanoparticles, corresponding to pioglitazone concentration of 0.015 mg/mouse (0.5 mg/kg body weight)) once. After administration, the branch part was ligated, the blood flow was resumed and the skin was sutured. Immediately after the wire injury, a high dose (10-fold amount of clinical dose) pioglitazone hydrochloride (0.15 mg/mouse (5 mg/kg body weight) as pioglitazone) single time intraperitoneal administration group was formed. At 28 days after vascular injury, the right femoral artery was washed and fixed with phosphate buffered saline and neutral buffered formalin via the heart, and isolated. A paraffin section was prepared and stained with Elastica van Gieson, proliferating cell nuclear antigen (PCNA) was immunohistochemically stained, and evaluated for the intima/media ratio, neointimal area, medial area and cell proliferation. For immunohistochemical staining, the proliferated cells were counted and the ratio of thereof to the total cell number was calculated.

[2] = tested on: Rat aortic smooth muscle cells; assay: Delivery and retention of nanoparticles in cultured rat smooth muscle cells; format: cell-based; settings: medium containing FITC alone
Method: Using the FITC-containing nanoparticles prepared in Experimental Example 3 (1), deliver and retention tests in cultured rat […] smooth muscle cell were performed.
Rat aortic smooth muscle cells (obtained from TOYOBO) were plated on a slide glass chamber to a subconfluent cell density in DMEM medium (Sigma) containing 10% fetal bovine serum (day 0). On day 2, the medium was changed to a medium containing FITC or FITC-containing nanoparticles (0.5 mg/mL in nanoparticles concentration).
At 5 min and 24 hr after medium exchange, the cells were fixed with methanol, the nucleus was stained with Propidium iodide (Vector laboratories, Inc.), and subjected to fluorescence microscope observation. The total number of nuclei and fluorescence positive cells were counted for each field of view, and the ratio of fluorescence positive cells was calculated.

Compound	Intima/media ratio ([1]; 0.15 mg/mouse (5 mg/kg) as pioglitazone)	Medial area (μm^2) ([1]; 5 mg/kg as pioglitazone)	Neointimal area (μm^2) ([1]; 5 mg/kg as pioglitazone)	Ratio of fluorescence positive cells [2]
CCc1ccc(CCOc2ccc(CC3SC(=O)NC3=O)cc2)nc1 (stereo not shown) [Pioglitazone, pioglitazone hydrochloride]	2.3 ± 1.2	14904 ± 2107 μm^2	23656 ± 8982 μm^2	–
fluorescein isothiocyanate [FITC]	–	–	–	0%
